# From US11584755B2 (IDEAYA BIOSCIENCES, INC., priority 2017, dated 2023)
# Legend:
# Format in all cases: biochemical
# [1] = biological target: hEXO1, Isoform1 (Homo sapiens (Human), UniProt Q9UQ84); assay: Enzymatic IC50 assay, FAM-labeled DNA oligomer substrate, fluorescence intensity (EXO1); details: hEXO1 6 nM, substrate 30 nM, reaction time 60 minutes, 23° C.
# Protocol: (§1) FEN1, EXO1 or XPG enzyme was incubated with compound or vehicle (DMSO) and the FAM-labeled DNA oligomer substrate in a microtiter plate. The stop buffer contains EDTA to stop the enzymatic reaction. The plate is read for fluorescence intensity. The high control (DMSO) with high fluorescence intensity represents no inhibition of enzymatic reaction while the low control (10 μM) with low fluorescence intensity represents full inhibition of enzymatic reaction.
# (§2) • FEN1 • hFEN1: 70 pM • Substrate: 100 nM • Reaction time: 20 minutes • EXO1 • hEXO1: 6 nM, Isoforml • Substrate: 30 nM • Reaction time: 60 minutes • XPG • hXPG: 100 nM • Substrate: 100 nM • Reaction time: 120 minutes
# (§3) Annealing Buffer: 50 mM Tris-HCl, 50 mM NaCl, 1 mM DTT Assay buffer: 50 mM Tris-HCl pH 8.0, 10 mM MgCl2, 0.01% BSA, 1 mM DTT Stop buffer: 50 mM EDTA in assay buffer Temperature: 23° C. Total volume: 40 μl Controls: • 0% inhibition control: DMSO • 100% inhibition control: 10 μM (final) 5-chloro-3-hydroxy-1,3-dihydroquinazoline-2,4-dione Enzyme Reaction and Detection: • 1. Prepare 25 μM intermediate stock of the substrate by diluting SEQ ID NO:1, SEQ ID NO:2, and SEQ ID NO:3 in annealing buffer, in a PCR tube. • 2. Place the PCR tube on a heat block, heat at 95° C. for 3 minutes, then drop in 0.2° C. increments over 2 minutes, stopping at 25° C. • 3. Remove the tube and let the tube cool at room temperature. • 4. Transfer 10 μL of 3× final concentration test compounds or DMSO to the appropriate wells of a microtiter plate. • 5. Transfer 10 μL of 3× final concentration enzyme in assay buffer or assay buffer alone to the appropriate wells. • 6. Incubate the plate at room temperature for 15 minutes. • 7. Transfer 10 μL of 3× substrate in assay buffer to all the test wells. • 8. Incubate the plate at room temperature for prescribed reaction time. • 9. Centrifuge the plate at 1000 rpm for 1 minute. • 10. Transfer 10 μL of stop buffer to all the test wells. • 11. Centrifuge the plate at 1000 rpm for 1 minute. • 12. Read the plate on a plate reader.
# [2] = biological target: hFEN1 (Homo sapiens (Human), UniProt P39748); assay: Enzymatic IC50 assay, FAM-labeled DNA oligomer substrate, fluorescence intensity (FEN1); details: hFEN1 70 pM, substrate 100 nM, reaction time 20 minutes, 23° C.
# How it was run: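 FEN1, EXO1 or XPG was preincubated 15 min with compound, then the FAM-labelled DNA oligomer substrate was added in Tris-HCl pH 8.0 with 10 mM MgCl2 at 23° C. FEN1 was 70 pM with 100 nM substrate for 20 min, EXO1 6 nM with 30 nM for 60 min, and XPG 100 nM with 100 nM for 120 min. Reactions were EDTA-stopped and read by fluorescence intensity.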
# [3] = biological target: hXPG (Homo sapiens (Human), UniProt P28715); assay: Enzymatic IC50 assay, FAM-labeled DNA oligomer substrate, fluorescence intensity (XPG); details: hXPG 100 nM, substrate 100 nM, reaction time 120 minutes, 23° C.
# Protocol: as §1, §2, §3
# Sequence of hXPG (P28715 whole entry): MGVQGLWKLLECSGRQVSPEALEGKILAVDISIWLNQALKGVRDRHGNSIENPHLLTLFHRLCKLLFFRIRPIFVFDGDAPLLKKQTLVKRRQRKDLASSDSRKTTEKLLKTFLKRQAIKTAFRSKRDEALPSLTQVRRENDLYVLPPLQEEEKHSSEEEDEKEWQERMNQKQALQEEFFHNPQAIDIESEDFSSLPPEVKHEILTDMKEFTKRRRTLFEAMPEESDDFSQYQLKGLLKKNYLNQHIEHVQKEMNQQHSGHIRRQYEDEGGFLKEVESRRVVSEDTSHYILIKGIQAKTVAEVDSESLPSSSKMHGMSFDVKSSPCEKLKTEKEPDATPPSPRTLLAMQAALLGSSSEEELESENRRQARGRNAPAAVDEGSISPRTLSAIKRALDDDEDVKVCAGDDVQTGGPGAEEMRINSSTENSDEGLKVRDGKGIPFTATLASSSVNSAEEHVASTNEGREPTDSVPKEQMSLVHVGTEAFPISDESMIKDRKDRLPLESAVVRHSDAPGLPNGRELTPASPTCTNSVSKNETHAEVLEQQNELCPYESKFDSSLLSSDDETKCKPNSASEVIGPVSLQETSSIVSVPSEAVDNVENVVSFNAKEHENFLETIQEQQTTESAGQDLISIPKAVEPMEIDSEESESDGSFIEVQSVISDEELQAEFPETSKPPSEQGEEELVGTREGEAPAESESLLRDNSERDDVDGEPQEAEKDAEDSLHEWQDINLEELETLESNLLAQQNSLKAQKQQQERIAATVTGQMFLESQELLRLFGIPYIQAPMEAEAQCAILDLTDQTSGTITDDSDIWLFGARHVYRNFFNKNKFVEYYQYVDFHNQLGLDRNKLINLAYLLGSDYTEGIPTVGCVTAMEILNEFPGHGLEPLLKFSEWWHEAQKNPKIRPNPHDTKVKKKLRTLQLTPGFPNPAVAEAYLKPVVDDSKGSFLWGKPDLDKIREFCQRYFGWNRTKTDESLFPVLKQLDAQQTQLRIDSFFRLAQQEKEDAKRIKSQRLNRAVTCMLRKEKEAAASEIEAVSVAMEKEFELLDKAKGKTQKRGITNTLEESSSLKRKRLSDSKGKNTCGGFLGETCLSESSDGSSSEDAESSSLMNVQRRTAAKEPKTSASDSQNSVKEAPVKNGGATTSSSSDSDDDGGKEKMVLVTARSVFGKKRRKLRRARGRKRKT
# Sequence of hFEN1 (P39748 whole entry): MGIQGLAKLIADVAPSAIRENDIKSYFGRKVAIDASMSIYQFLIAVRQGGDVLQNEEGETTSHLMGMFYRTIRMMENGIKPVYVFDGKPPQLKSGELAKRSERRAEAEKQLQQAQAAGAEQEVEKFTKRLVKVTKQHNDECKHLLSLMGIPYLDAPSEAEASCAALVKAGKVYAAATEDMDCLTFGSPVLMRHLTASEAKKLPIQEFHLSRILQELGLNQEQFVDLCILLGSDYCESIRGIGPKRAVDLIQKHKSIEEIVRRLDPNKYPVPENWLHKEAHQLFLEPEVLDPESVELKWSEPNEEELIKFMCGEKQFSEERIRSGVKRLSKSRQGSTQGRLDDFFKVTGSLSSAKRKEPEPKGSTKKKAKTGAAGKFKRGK
# Sequence of hEXO1, Isoform1 (Q9UQ84 whole entry, canonical isoform): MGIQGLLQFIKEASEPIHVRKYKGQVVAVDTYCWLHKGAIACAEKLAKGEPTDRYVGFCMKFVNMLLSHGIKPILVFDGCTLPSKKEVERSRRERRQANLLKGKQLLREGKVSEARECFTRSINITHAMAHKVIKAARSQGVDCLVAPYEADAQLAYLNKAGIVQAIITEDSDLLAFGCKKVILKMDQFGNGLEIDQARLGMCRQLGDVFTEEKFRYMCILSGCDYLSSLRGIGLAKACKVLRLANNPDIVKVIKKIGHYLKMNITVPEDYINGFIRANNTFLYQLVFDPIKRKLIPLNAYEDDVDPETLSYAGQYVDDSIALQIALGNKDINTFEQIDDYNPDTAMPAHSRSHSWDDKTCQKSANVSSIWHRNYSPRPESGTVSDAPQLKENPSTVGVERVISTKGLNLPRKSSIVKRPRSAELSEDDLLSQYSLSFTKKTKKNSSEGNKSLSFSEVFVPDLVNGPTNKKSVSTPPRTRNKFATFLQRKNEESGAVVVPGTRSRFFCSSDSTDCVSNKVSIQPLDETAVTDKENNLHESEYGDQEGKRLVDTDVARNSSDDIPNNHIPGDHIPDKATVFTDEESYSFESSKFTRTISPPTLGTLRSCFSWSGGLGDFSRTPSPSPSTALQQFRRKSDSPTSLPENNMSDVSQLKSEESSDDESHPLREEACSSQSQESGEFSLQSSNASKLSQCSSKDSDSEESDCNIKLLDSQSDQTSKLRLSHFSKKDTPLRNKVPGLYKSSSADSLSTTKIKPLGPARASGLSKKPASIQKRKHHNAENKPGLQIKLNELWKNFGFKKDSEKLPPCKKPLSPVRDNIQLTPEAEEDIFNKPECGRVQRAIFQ
Structure (SMILES),IC50 [1],IC50 [2],IC50 [3]
"Cn1cc(Cn2cc(Cn3c(=O)c(O)c(C(=O)O)c4sccc43)cn2)cn1 [Example 143, 6-hydroxy-4-({1-[(1-methyl-1H-pyrazol-4-yl)methyl]-1H-pyrazol-4-yl}methyl)-5-oxo-4,5-dihydrothieno[3,2-b]pyridine-7-carboxylic acid]",2250 to 10000 nM,< 200 nM,2250 to 10000 nM
"N#Cc1ccccc1-n1cc(Cn2c(=O)c(O)c(C(=O)O)c3sccc32)cn1 [Example 111, 4-{[1-(2-cyanophenyl)-1H-pyrazol-4-yl]methyl}-6-hydroxy-5-oxo-4,5-dihydrothieno[3,2-b]pyridine-7-carboxylic acid]",250 to 750 nM,250 to 750 nM,750 to 2250 nM
"O=C(O)c1c(O)c(=O)n(Cc2cnn3ccccc23)c2ccsc12 [Example 24, 6-hydroxy-5-oxo-4-(pyrazolo[1,5-a]pyridin-3-ylmethyl)-4,5-dihydrothieno[3,2-b]pyridine-7-carboxylic acid]",750 to 2250 nM,< 200 nM,< 200 nM
"CC(=O)Nc1cccc(Cn2c(=O)c(O)c(C(=O)O)c3sccc32)c1 [Example 7, 4-[(3-acetamidophenyl)methyl]-6-hydroxy-5-oxo-thieno[3,2-b]pyridine-7-carboxylic acid]",750 to 2250 nM,< 200 nM,2250 to 10000 nM
"CS(=O)(=O)c1ccc(-n2cc(Cn3c(=O)c(O)c(C(=O)O)c4sccc43)cn2)cc1 [Example 116, 6-hydroxy-4-({1-[4-(methylsulfonyl)phenyl]-1H-pyrazol-4-yl}methyl)-5-oxo-4,5-dihydrothieno[3,2-b]pyridine-7-carboxylic acid]",250 to 750 nM,< 200 nM,750 to 2250 nM
"O=C(O)c1c(O)c(=O)n(Cc2cnn(Cc3ccnnc3)c2)c2ccsc12 [Example 132, 6-hydroxy-5-oxo-4-{[1-(pyridazin-4-ylmethyl)-1H-pyrazol-4-yl]methyl}-4,5-dihydrothieno[3,2-b]pyridine-7-carboxylic acid]",2250 to 10000 nM,< 200 nM,2250 to 10000 nM
"O=C(O)c1c(O)c(=O)n(Cc2cnn(Cc3cnc4ccccn34)c2)c2ccsc12 [Example 144, 6-hydroxy-4-{[1-(imidazo[1,2-a]pyridin-3-ylmethyl)-1H-pyrazol-4-yl]methyl}-5-oxo-4,5-dihydrothieno[3,2-b]pyridine-7-carboxylic acid]",2250 to 10000 nM,< 200 nM,> 10000 nM
"O=C(O)c1c(O)c(=O)n(CC2CCOC2)c2ccsc12 (stereo not drawn) [Example 42, 6-hydroxy-5-oxo-4-((tetrahydrofuran-3-yl)methyl)-4,5-dihydrothieno[3,2-b]pyridine-7-carboxylic acid]",2250 to 10000 nM,2250 to 10000 nM,2250 to 10000 nM
"Cc1cc(C#N)ccc1Cn1cc(Cn2c(=O)c(O)c(C(=O)O)c3sccc32)cn1 [Example 133, 4-{[1-(4-cyano-2-methylbenzyl)-1H-pyrazol-4-yl]methyl}-6-hydroxy-5-oxo-4,5-dihydrothieno[3,2-b]pyridine-7-carboxylic acid]",2250 to 10000 nM,< 200 nM,750 to 2250 nM
"Cn1cc(Cn2c(=O)c(O)c(C(=O)O)c3sccc32)cn1 [Example 90, 6-hydroxy-4-[(1-methyl-1H-pyrazol-4-yl)methyl]-5-oxo-4,5-dihydrothieno[3,2-b]pyridine-7-carboxylic acid]",2250 to 10000 nM,< 200 nM,2250 to 10000 nM
"O=C(O)c1c(O)c(=O)n(Cc2ccc(Br)cc2)c2ccsc12 [Example 5, 4-(4-bromobenzyl)-6-hydroxy-5-oxo-4,5-dihydrothieno[3,2-b]pyridine-7-carboxylic acid]",2250 to 10000 nM,250 to 750 nM,2250 to 10000 nM
"CS(=O)(=O)c1cccc(-n2cc(Cn3c(=O)c(O)c(C(=O)O)c4sccc43)cn2)c1 [Example 115, 6-hydroxy-4-({1-[3-(methylsulfonyl)phenyl]-1H-pyrazol-4-yl}methyl)-5-oxo-4,5-dihydrothieno[3,2-b]pyridine-7-carboxylic acid]",< 200 nM,< 200 nM,750 to 2250 nM
"COc1ccc(Cn2c(=O)c(O)c(C(=O)O)c3sccc32)cc1 [Example 12, 6-hydroxy-4-[(4-methoxyphenyl)methyl]-5-oxo-thieno[3,2-b]pyridine-7-carboxylic acid]",2250 to 10000 nM,< 200 nM,2250 to 10000 nM
"O=C(O)c1c(O)c(=O)n(Cc2ccc3[nH]cnc3c2)c2ccsc12 [Example 99, 4-[(1H-benzo[d]imidazol-5-yl)methyl]-6-hydroxy-5-oxo-4,5-dihydrothieno[3,2-b]pyridine-7-carboxylic acid]",750 to 2250 nM,< 200 nM,2250 to 10000 nM
"O=C(O)c1c(O)c(=O)n(Cc2cnn(-c3ccccc3)c2)c2ccsc12 [Example 84, 6-hydroxy-5-oxo-4-[(1-phenyl-1H-pyrazol-4-yl)methyl]-4,5-dihydrothieno[3,2-b]pyridine-7-carboxylic acid]",250 to 750 nM,< 200 nM,250 to 750 nM
"COc1ccc(Cn2c(=O)c(O)c(C(=O)O)c3sc(Cc4ccccc4)cc32)cc1 [Example 29, 2-benzyl-6-hydroxy-4-(4-methoxybenzyl)-5-oxo-4,5-dihydrothieno[3,2-b]pyridine-7-carboxylic acid]",2250 to 10000 nM,2250 to 10000 nM,2250 to 10000 nM
"O=C(O)c1c(O)c(=O)n(Cc2cnn(Cc3ccncc3)c2)c2ccsc12 [Example 121, 6-hydroxy-5-oxo-4-{[1-(pyridin-4-ylmethyl)-1H-pyrazol-4-yl]methyl}-4,5-dihydrothieno[3,2-b]pyridine-7-carboxylic acid]",2250 to 10000 nM,< 200 nM,2250 to 10000 nM
O=C(O)c1c(O)c(=O)n(Cc2cnn(Cc3cn4ncccc4n3)c2)c2ccsc12 [Example 138],2250 to 10000 nM,< 200 nM,2250 to 10000 nM
"O=C(O)c1c(O)c(=O)n(Cc2nc(-c3ccccc3)no2)c2ccsc12 [Example 86, 6-hydroxy-5-oxo-4-[(3-phenyl-1,2,4-oxadiazol-5-yl)methyl]-4,5-dihydrothieno[3,2-b]pyridine-7-carboxylic acid]",750 to 2250 nM,250 to 750 nM,750 to 2250 nM
"CC(=O)Nc1ccc(-n2cc(Cn3c(=O)c(O)c(C(=O)O)c4sccc43)cn2)cc1 [Example 22, 4-{[1-(4-acetamidophenyl)-1H-pyrazol-4-yl]methyl}-6-hydroxy-5-oxo-4,5-dihydrothieno[3,2-b]pyridine-7-carboxylic acid]",250 to 750 nM,< 200 nM,250 to 750 nM
"O=C(O)c1c(O)c(=O)n(Cc2cnn(CCc3ccncc3)c2)c2ccsc12 [Example 28, 6-hydroxy-5-oxo-4-({1-[2-(4-pyridyl)ethyl]pyrazol-4-yl}methyl)thieno[3,2-b]pyridine-7-carboxylic acid]",2250 to 10000 nM,< 200 nM,2250 to 10000 nM
"CC(=O)Nc1ccc(Cn2c(=O)c(O)c(C(=O)O)c3sccc32)cc1 [Example 40, 4-(4-acetamidobenzyl)-6-hydroxy-5-oxo-4,5-dihydrothieno[3,2-b]pyridine-7-carboxylic acid]",2250 to 10000 nM,< 200 nM,2250 to 10000 nM
